Experimental data: patent EP0429333B1, “Process for producing oxazopyrroloquinolines, novel oxazopyrroloquinolines, and use of oxazopyrroloquinolines” (priority 1989, dated 1991)

Experiments:
[1] = target: T1, aldose reductase of rabbit lens (Oryctolagus cuniculus, UniProt P15122); experiment: Inhibitory effect on aldose reductase of lens; format: biochemical; settings: read-out: Degree of inhibition for aldose reductase (%)
T1 construct: to obtain electrophoretically homogeneous aldose reductase; from tissue; host or cells: rabbit lens
Protocol: 0.05 ml of 3mM NADPH, 0.1 ml of DL-glyceraldehyde and 0.04 ml of distilled water were added to 0.8 ml of 0.1M phosphoric acid buffer (pH 6.2) and left to stand at 25°C for 3 minutes. Then, 0.01 ml of the aldose reductase solution was added thereto to start reaction and decreasing of absorbance of 340 nm was measured at 25°C with time. Amount of enzyme which consumes 1 µmole of NADPH for 1 minute was taken as 1 unit.
Enzyme activity was measured under the same conditions as in the above measurement of aldose reductase activity except that 0.04 ml of aqueous solution of inhibitory substance in various concentrations was added in place of 0.04 ml of distilled water and degree of inhibition was calculated from comparison of the enzyme activity with the enzyme activity obtained in the absence of inhibitor. (1) OPQ, (2) methyl OPQ, (3) 1-methylpropyl OPQ, (4) 2-methylpropyl OPQ, (5) 2-carbamoylethyl OPQ, (6) hydroxymethyl OPQ, (7) 2-methylthioethyl OPQ, (8) 2-carboxyethyl OPQ, (9) 4-hydroxybenzyl OPQ, (10) 1-methylethyl OPQ, and (11) benzyl OPQ were used as inhibition substances and (12) PQQ was used as control.
Lens of rabbit was homogenized with 10mM phosphoric acid buffer (pH 7.0) containing 2mM dithiothreitol in an amount of two times the volume of the lens and subjected to centrifugation. The supernatant liquid was purified by affinity chromatography, gel filtration and chromatofocusing to obtain electrophoretically homogeneous aldose reductase. Using (1) OPQ, (2) 1-methylpropyl OPQ, (3) 2-methylpropyl OPQ, (4) hydroxymethyl OPQ, and (5) 1-methylethyl OPQ as inhibition substances, degree of inhibition of these substances for aldose reductase of rabbit lens was examined in the same manner in Example 32.

[2] = tested on: peritoneal macrophage; experiment: Test on macrophage-chemotaxis after intraperitoneal administration; format: in vivo, C3H/He mice; settings: for (2) Chemotaxis factor was present: 50 % zymosan treated serum, no administration 68; for (2) - (1) Chemotaxied macrophage: no administration 58; for Relative activity of group (%): no administration = 100; for (1) Chemotaxis factor was not present: total number of chemotaxied macrophages at 3 points, no administration 10
Protocol: Thirtytwo C3H/He mice (male, 7 weeks old, average body weight 20 g, supplied by Japan Charles River Co.) were divided into 4 groups (A - D) of 8 mice each.
A solution of OPQ in physiological saline of pH 7.0 was intraperitoneally administered to each mouse 7 times, namely, on the 1st day, 2nd day, 3rd day, 4th day, 5th day, 6th day and 7th day. Dosage for one administration per one mouse was as follows: That is, 0.2 ml of the solution containing 0.2 mg/ml of OPQ for group B, 0.2 ml of the solution containing 0.5 mg/ml of OPQ for group C, 0.2 ml of the solution containing 1.0 mg/ml of OPQ for group D and 0.2 ml of physiological saline for group A.
On the 8th day from starting of the experiment, the mice were anesthetized with ether and blood was drawn from carotid artery and 5 ml of cold Hanks solution was intraperitoneally injected and exudate cells for the abdominal cavity were collected. Exudate cells for the abdominal cavity of respective groups were gathered, washed three times with cold Hanks solution and suspended in RPMI medium at 5 x 10^5 cells/ml and macrophage-chemotaxis was measured. 50 % zymosan treated serum was used as chemotaxis factor and examination was conducted at three points for each sample. Number of chemotaxied macrophage was measured on microscope and 13 visual fields was examined for one point and the results are shown in Table 2. The value in the table is a total number of chemotaxied macrophages at 3 points for each sample. Preparation of Hanks solution and RPMI medium will be explained below.
Test on macrophage-chemotaxis was conducted in the same manner as in Example 36 except that hydroxymethyl OPQ was intraperitoneally administered to each mouce 3 times of the 1st day, the 2nd day and the 3rd day in the following dosage for one administration per one mouse: 0.2 ml of hydroxymethyl OPQ solution containing 0.5 mg/ml of hydroxymethyl OPQ for group B, 0.2 ml of the solution containing 1.0 mg/ml of hydroxymethyl OPQ for group C, and 0.2 ml of the solution containing 1.5 mg/ml of hydroxymethyl OPQ for group D and exudate cells for the abdominal cavity were collected on the 4th day from starting of experiment.
(§1) In Examples 36 - 40, macrophage activity was examined according to chemotaxis of peritoneal macrophage (literature 1) and activity of T cell and that of B cell were examined according to blast transformation reaction using concanavalin A and lipopolysaccharide, (LPS) as mitogen (literature 2). Literature 1: "Function of Macrophage and Method of Measurement of Function", pages 61-65 1985), edited by Educational Committee of Japan Bacteriological Society and published from Saikon Shuppan Co.) Literature 2: "New Method of Searching of Function of Lymphocytes", pages 350-355 (1987) edited by Junichi Yada and Michio Fujiwara and published from Chugai Igaku Co.

[3] = tested on: T cell; experiment: Test on T cell blast transformation reaction (1), spleen cells of treated mice; format: in vivo, C3H/He mouse; settings: for Relative activity (%): no administration = 100
Protocol: In the same manner as in Example 36, OPQ was administered to C3H/He mouse and the mouse was bred. Dosage of OPQ for one administration per one mouse was 0.2 ml of OPQ solution containing 0.5 mg/ml of OPQ for group B and 0.2 ml of the solution containing 1.0 mg/ml of OPQ for group C and 0.2 ml of physiological saline was administered for group A.
On the 8th day from starting of experiment, mouse was anesthetized with ether and blood was drawn from carotid artery and spleen was aseptically extracted.
Cells of the spleen of respective groups were broken up and these cells were floated on tris-NH4Cl hemolytic solution warmed to 37°C and left for 5 minutes at 37°C to hemolyze erythrocytes, followed by washing twice with cold Hanks solution. The cells were suspended in RPMI medium at 4 x 10^6 cells/ml and the suspension was put in a flat bottom microplate of 96 holes. Culture was carried out in the air containing 5 % of CO2 at 37°C using concanavalin A (Type IV Sigma C2010) in an amount of 0.5 µg/ml or 2 µg/ml as mitogen. After 63 hours from starting of culture, ^3H-thymidine was added in an amount of 2.5 µci/ml and culturing was carried out for further 9 hours. Thereafter, cells were gathered on a glass fiber filter by cell harvester and ^3H on this filter was measured by a liquid scintillation counter.
As control, same four culturings were conducted under the same conditions without adding concanavalin A.
Values in the table are average values of intake amount (cpm) of ^3H in culture under four same conditions.
as §1

[4] = 2 mg/kg mouse x 7 days intraperitoneally
[5] = 5 mg/kg mouse x 7 days intraperitoneally
[6] = 10 mg/kg mouse x 7 days intraperitoneally

For O=C(O)c1cc(C(=O)O)c2c(n1)c1ncoc1c1cc(C(=O)O)[nH]c12 [OPQ, oxazopyrroloquinoline], the inhibition at 0.1 µM ([1]; concentration 1x10^-7 M) was 43.2%, the inhibition at 0.2 µM ([1]; concentration 2x10^-7 M) was 54.5% and the inhibition at 0.5 µM ([1]; concentration 5x10^-7 M) was 63.1%. The inhibition at 0.05 µM ([1]; concentration 5x10^-8 M) was 31%, the “(2) Chemotaxis factor was present” value [2, 4] was 107 and the “(2) - (1) Chemotaxied macrophage” value [2, 4] was 96. For the same compound, the “Relative activity of group (%)” value [2, 4] was 166%, the “(1) Chemotaxis factor was not present” value [2, 4] was 11 and the “(2) Chemotaxis factor was present” value [2, 5] was 96. For the same compound, the “(2) - (1) Chemotaxied macrophage” value [2, 5] was 87, the “Relative activity of group (%)” value [2, 5] was 150% and the “(1) Chemotaxis factor was not present” value [2, 5] was 9. For the same compound, the “(2) Chemotaxis factor was present” value [2, 6] was 180, the “(2) - (1) Chemotaxied macrophage” value [2, 6] was 173 and the “Relative activity of group (%)” value [2, 6] was 298%. For the same compound, the “(1) Chemotaxis factor was not present” value [2, 6] was 7, the “Relative activity (%)” value ([3]; 5 mg/kg mouse x 7 days, Concanavalin A 0.5µg/ml) was 137% and the “Relative activity (%)” value ([3]; 5 mg/kg mouse x 7 days, Concanavalin A 2.0µg/ml) was 146%. The “intake amount (cpm) of ^3H” value ([3]; 5 mg/kg mouse x 7 days, concanavalin 0 µg/ml, no administration 7312) was 10796 cpm, the “intake amount (cpm) of ^3H” value ([3]; 5 mg/kg mouse x 7 days, concanavalin 0.5 µg/ml, no administration 11637) was 15942 cpm and the “intake amount (cpm) of ^3H” value ([3]; 5 mg/kg mouse x 7 days, concanavalin 2 µg/ml, no administration 96188) was 140376 cpm. For the same compound, the “Relative activity (%)” value ([3]; 10 mg/kg mouse x 7 days, Concanavalin A 0.5µg/ml) was 189%, the “Relative activity (%)” value ([3]; 10 mg/kg mouse x 7 days, Concanavalin A 2.0µg/ml) was 150% and the “intake amount (cpm) of ^3H” value ([3]; 10 mg/kg mouse x 7 days, concanavalin 0 µg/ml, no administration 7312) was 9124 cpm. The “intake amount (cpm) of ^3H” value ([3]; 10 mg/kg mouse x 7 days, concanavalin 0.5 µg/ml, no administration 11637) was 21965 cpm and the “intake amount (cpm) of ^3H” value ([3]; 10 mg/kg mouse x 7 days, concanavalin 2 µg/ml, no administration 96188) was 144171 cpm.
